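Compound exposure: 48 hours, 5 concentrations, 96-well plates. Abbreviation: GI50, concentration required for 50% inhibition of growth.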 Calls of active or inactive are those of the source. No stated cut-off is given here; in the data, active = GI50 up to about 1.1 µM and inactive = higher.
Experiments:
Assay in all cases: NCI tumour cell line growth inhibition, 48 h
RPMI-8226 = test system: RPMI-8226
NCI/ADR-RES = test system: NCI/ADR-RES
MOLT-4 = test system: MOLT-4
SF-268 = test system: SF-268
RXF 393 = test system: RXF 393
OVCAR-3 = test system: OVCAR-3
A498 = test system: A498
EKVX = test system: EKVX
SK-MEL-2 = test system: SK-MEL-2
HL-60 = test system: HL-60
UACC-257 = test system: UACC-257
HCC 2998 = test system: HCC 2998
HOP-62 = test system: HOP-62
HT-29 = test system: HT-29
NCI-H460 = test system: NCI-H460
OVCAR-5 = test system: OVCAR-5
CAKI-1 = test system: CAKI-1
MDA-MB-231 = test system: MDA-MB-231
IGROV-1 = test system: IGROV-1
MDA-N = test system: MDA-N

Row | SMILES | GI50 (RPMI-8226) | GI50 (NCI/ADR-RES) | GI50 (MOLT-4) | GI50 (SF-268) | GI50 (RXF 393) | GI50 (OVCAR-3) | GI50 (A498) | GI50 (EKVX) | GI50 (SK-MEL-2) | GI50 (HL-60) | GI50 (UACC-257) | GI50 (HCC 2998) | GI50 (HOP-62) | GI50 (HT-29) | GI50 (NCI-H460) | GI50 (OVCAR-5) | GI50 (CAKI-1) | GI50 (MDA-MB-231) | GI50 (IGROV-1) | GI50 (MDA-N)
1 | COc1cc2cc(C(=O)N3CC(CCl)c4c3cc(O)c3ccccc43)[nH]c2c(OC)c1OC (stereo not drawn) | < 0.005 µM (active) | < 0.005 µM (active) | < 0.005 µM (active) | < 0.005 µM (active) | < 0.005 µM (active) | < 0.005 µM (active) | < 0.005 µM (active) | < 0.005 µM (active) | < 0.005 µM (active) | < 0.005 µM (active) | < 0.005 µM (active) | < 0.005 µM (active) | < 0.005 µM (active) | < 0.005 µM (active) | < 0.005 µM (active) | < 0.005 µM (active) | – | – | – | –
2 | CN1C(=O)C(O)CC1c1cccc(C(F)(F)F)c1 (stereo not drawn) | > 100 µM (inactive) | > 100 µM (inactive) | > 100 µM (inactive) | > 100 µM (inactive) | > 100 µM (inactive) | > 100 µM (inactive) | > 100 µM (inactive) | > 100 µM (inactive) | > 100 µM (inactive) | > 100 µM (inactive) | > 100 µM (inactive) | > 100 µM (inactive) | > 100 µM (inactive) | > 100 µM (inactive) | > 100 µM (inactive) | > 100 µM (inactive) | > 100 µM (inactive) | > 100 µM (inactive) | > 100 µM (inactive) | –
3 | CCCCC1=C(C(=O)N2CCOCC2)C2(OCCO2)C1=O | – | 22.2 µM (inactive) | 51.2 µM (inactive) | 24 µM (inactive) | 21.1 µM (inactive) | 19.5 µM (inactive) | 27.8 µM (inactive) | 26.2 µM (inactive) | 25.1 µM (inactive) | 30.2 µM (inactive) | 28.9 µM (inactive) | – | 23.6 µM (inactive) | 18.8 µM (inactive) | 24.8 µM (inactive) | 16.9 µM (inactive) | 21.9 µM (inactive) | – | 17.9 µM (inactive) | 21.4 µM (inactive)
4 | Cn1c(=O)c2c(nc(N3CCOCC3)n2CCCNCC(O)c2ccc(O)c(O)c2)n(C)c1=O (stereo not drawn) | > 100 µM (inactive) | > 100 µM (inactive) | 20.8 µM (inactive) | > 100 µM (inactive) | > 100 µM (inactive) | > 100 µM (inactive) | > 100 µM (inactive) | > 100 µM (inactive) | > 100 µM (inactive) | – | > 100 µM (inactive) | – | > 100 µM (inactive) | > 100 µM (inactive) | > 100 µM (inactive) | 23.9 µM (inactive) | > 100 µM (inactive) | 0.0262 µM (active) | > 100 µM (inactive) | –
5 | CC(C)(C)[Si](C)(C)OCc1cccc(OCCOc2cccc(CO[Si](C)(C)C(C)(C)C)c2[N+](=O)[O-])c1[N+](=O)[O-] | – | > 100 µM (inactive) | > 100 µM (inactive) | > 100 µM (inactive) | > 100 µM (inactive) | > 100 µM (inactive) | > 100 µM (inactive) | > 100 µM (inactive) | > 100 µM (inactive) | > 100 µM (inactive) | > 100 µM (inactive) | – | > 100 µM (inactive) | > 100 µM (inactive) | > 100 µM (inactive) | > 100 µM (inactive) | > 100 µM (inactive) | – | > 100 µM (inactive) | > 100 µM (inactive)
6 | CC1(C)OP(=O)(O)CC1=O | – | > 100 µM (inactive) | – | > 100 µM (inactive) | – | > 100 µM (inactive) | > 100 µM (inactive) | > 100 µM (inactive) | > 100 µM (inactive) | – | > 100 µM (inactive) | > 100 µM (inactive) | > 100 µM (inactive) | > 100 µM (inactive) | > 100 µM (inactive) | > 100 µM (inactive) | > 100 µM (inactive) | – | > 100 µM (inactive) | > 100 µM (inactive)
7 | CCOC(=O)CN1C(=O)NC(C)(c2ccccc2)C1=O (stereo not drawn) | > 100 µM (inactive) | > 100 µM (inactive) | > 100 µM (inactive) | > 100 µM (inactive) | > 100 µM (inactive) | > 100 µM (inactive) | > 100 µM (inactive) | > 100 µM (inactive) | > 100 µM (inactive) | – | > 100 µM (inactive) | > 100 µM (inactive) | > 100 µM (inactive) | > 100 µM (inactive) | – | > 100 µM (inactive) | > 100 µM (inactive) | > 100 µM (inactive) | > 100 µM (inactive) | –
8 | CCOC(=O)CSc1nc(-c2ccccc2)c(C#N)c(=O)[nH]1 | > 100 µM (inactive) | > 100 µM (inactive) | > 100 µM (inactive) | > 100 µM (inactive) | > 100 µM (inactive) | > 100 µM (inactive) | > 100 µM (inactive) | > 100 µM (inactive) | > 100 µM (inactive) | > 100 µM (inactive) | > 100 µM (inactive) | > 100 µM (inactive) | > 100 µM (inactive) | > 100 µM (inactive) | > 100 µM (inactive) | > 100 µM (inactive) | > 100 µM (inactive) | > 100 µM (inactive) | > 100 µM (inactive) | –
9 | Cc1ccc(S(=O)(=O)N2CCN(S(=O)(=O)c3ccc(C)cc3)Cc3ccccc3C2)cc1 | > 100 µM (inactive) | > 100 µM (inactive) | > 100 µM (inactive) | 81.1 µM (inactive) | – | 56.8 µM (inactive) | – | > 100 µM (inactive) | > 100 µM (inactive) | > 100 µM (inactive) | 49.8 µM (inactive) | > 100 µM (inactive) | 20.5 µM (inactive) | > 100 µM (inactive) | > 100 µM (inactive) | > 10 µM (inactive) | 39.4 µM (inactive) | > 100 µM (inactive) | > 100 µM (inactive) | –
10 | O=[N+]([O-])c1cc(/C=N/NS(=O)(=O)c2ccc(F)cc2)c(O)c([N+](=O)[O-])c1 | 27.7 µM (inactive) | – | 21.9 µM (inactive) | 40.1 µM (inactive) | 36.6 µM (inactive) | 29 µM (inactive) | 29.9 µM (inactive) | > 100 µM (inactive) | 45.2 µM (inactive) | 38.5 µM (inactive) | 42.3 µM (inactive) | > 100 µM (inactive) | 43.2 µM (inactive) | 22.3 µM (inactive) | 28.8 µM (inactive) | > 100 µM (inactive) | 76.2 µM (inactive) | – | 69.5 µM (inactive) | –
11 | O=C(O)CSc1nnc(-c2ccccc2O)[nH]1 | > 100 µM (inactive) | – | > 100 µM (inactive) | > 100 µM (inactive) | > 100 µM (inactive) | > 100 µM (inactive) | > 100 µM (inactive) | > 100 µM (inactive) | > 100 µM (inactive) | > 100 µM (inactive) | > 100 µM (inactive) | > 100 µM (inactive) | – | > 100 µM (inactive) | > 100 µM (inactive) | > 100 µM (inactive) | > 100 µM (inactive) | – | > 100 µM (inactive) | –
12 | C=CCc1ccc(O)c(-c2cc(C3Oc4c(-c5cc(CC=C)ccc5O)cc(O)cc4[C@@H]3CO)ccc2O)c1 (stereo partly drawn) | 24.9 µM (inactive) | – | – | 30.3 µM (inactive) | 21.2 µM (inactive) | 20.1 µM (inactive) | 14.8 µM (inactive) | 64.4 µM (inactive) | 18.6 µM (inactive) | 18.5 µM (inactive) | 73.5 µM (inactive) | 22.1 µM (inactive) | 21.4 µM (inactive) | 33.3 µM (inactive) | 66.2 µM (inactive) | 56.1 µM (inactive) | 47.3 µM (inactive) | – | 20.3 µM (inactive) | –

From ChEMBL document CHEMBL1201862, “PubChem BioAssay data set” (2004)
